Patent US9802942B2, “Substituted 4-methyl-pyrrolo[1,2-A]pyrimidine-8-carboxamide compounds and uses thereof for modulating glucocerebrosidase activity” (Northwestern University, priority 2015, dated 2017)
Read-outs that look alike come from different tables or passages of the source.

T1: glucocerebrosidase (GCase), recombinant wt. enzyme velaglucerase alfa (Homo sapiens, UniProt P04062)
T1 construct: purchased Shire Human Genetic Therapies, Inc. Vpriv
T1 sequence (P04062 40-536): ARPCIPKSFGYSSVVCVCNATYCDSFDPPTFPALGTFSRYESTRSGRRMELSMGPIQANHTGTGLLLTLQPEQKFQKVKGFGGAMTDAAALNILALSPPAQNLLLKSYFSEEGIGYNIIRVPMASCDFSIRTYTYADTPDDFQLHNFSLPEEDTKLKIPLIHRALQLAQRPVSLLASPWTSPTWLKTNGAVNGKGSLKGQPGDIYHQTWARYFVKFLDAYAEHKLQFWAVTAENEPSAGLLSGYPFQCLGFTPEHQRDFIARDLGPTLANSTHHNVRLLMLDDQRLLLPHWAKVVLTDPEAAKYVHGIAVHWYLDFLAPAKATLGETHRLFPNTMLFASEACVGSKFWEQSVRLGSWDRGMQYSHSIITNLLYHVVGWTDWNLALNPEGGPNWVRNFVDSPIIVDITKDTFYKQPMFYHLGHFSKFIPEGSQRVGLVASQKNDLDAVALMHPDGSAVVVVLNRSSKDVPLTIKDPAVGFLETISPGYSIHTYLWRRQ

T2: recombinant wild type GCase (Homo sapiens, UniProt P04062)
T2 construct: purchased Shire Human Genetic Therapies, Inc. Vpriv
T2 sequence (P04062 40-536): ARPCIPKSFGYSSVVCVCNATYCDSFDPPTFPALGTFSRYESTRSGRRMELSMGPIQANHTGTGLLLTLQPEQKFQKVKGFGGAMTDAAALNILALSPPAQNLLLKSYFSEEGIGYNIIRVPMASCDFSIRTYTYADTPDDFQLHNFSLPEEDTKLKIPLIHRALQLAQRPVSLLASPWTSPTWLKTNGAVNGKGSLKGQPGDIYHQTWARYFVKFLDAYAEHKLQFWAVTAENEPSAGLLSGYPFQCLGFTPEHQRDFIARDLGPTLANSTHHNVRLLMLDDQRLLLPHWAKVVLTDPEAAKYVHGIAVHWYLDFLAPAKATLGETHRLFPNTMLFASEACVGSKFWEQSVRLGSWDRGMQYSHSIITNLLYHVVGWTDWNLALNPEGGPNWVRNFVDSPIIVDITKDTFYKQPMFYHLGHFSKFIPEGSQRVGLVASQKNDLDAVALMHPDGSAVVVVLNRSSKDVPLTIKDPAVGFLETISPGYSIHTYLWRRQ


Key:
[1] = molecular target: T1, glucocerebrosidase (GCase), recombinant wt. enzyme velaglucerase alfa; test: Glucocerebrosidase activity assay with blue substrate (4MU-Glc); format: biochemical
Protocol: (§1) The compounds in DMSO solution 0.5 μL/well were transferred to a black 96-well plate (the final titration was 24 nM to 50 μM, 12 concentrations, 2 times dilution). 33.5 μL enzyme solution (7.5 nM final concentration) was transferred to the wells. After 5 min of incubation at room temperature, the enzyme reaction was initiated by the addition of 33 μL/well blue substrate or 66.5 μL/well red substrate. Final concentrations of the blue substrate (4MU-Glc) and red substrate (Res-Glc) were 1.5 mM and 30 μM, respectively. The red substrate reaction was measured in the Biotek Synergy H1 multi-mode plate reader with Ex=573 nm and Em=610 nm at 37° C. every 20 sec for 30 min. The blue substrate reaction was terminated by the addition of 33 μL/well stop solution (1 M NaOH and 1 M glycine mixture, pH 10) after 30 min of incubation at 37° C. The fluorescence was then measured in the plate reader at Ex=365 nm and Em=440 nm.
The recombinant wt. enzyme velaglucerase alfa (Vpriv®, Shire Human Genetic Therapies, Inc.) was obtained from residual solution after clinical infusions. The GCase activity assay buffer was composed of 50 mM citric acid, 176 mM K2HPO4, and 0.01% Tween-20 at pH 5.9. A solution of 1 M sodium hydroxide and 1 M glycine was used as the stop solution for the 4MU-β-glc substrate assay.
The compounds in DMSO solution 0.5 μL/well was transferred to a black 96-well plate (the final titration was 24 nM to 50 μM, 12 concentrations). 33.5 μL enzyme solution (7.5 nM final concentration) was transferred to the wells. After 5 min of incubation at room temperature, the enzyme reaction was initiated by the addition of 33 μL/well 4MU-Glc substrate or 66.5 μL/well red substrate. Final concentrations of the 4MU-Glc substrate and Res-Glc substrate were 1.5 mM and 30 μM, respectively. The red substrate reaction was measured in the Biotek Synergy H1 multi-mode plate reader with Ex=573 nm and Em=610 nm at 37° C. in every 20 seconds for 30 min. The 4MU-Glc substrate reaction was terminated by the addition of 33 μL/well stop solution (1 M NaOH and 1 M glycine mixture, pH 10) after 30 min of incubation at 37° C. The fluorescence was then measured in the plate reader with Ex=365 nm and Em=440 nm.

[2] = molecular target: T1, glucocerebrosidase (GCase), recombinant wt. enzyme velaglucerase alfa; test: Glucocerebrosidase activity assay with red substrate (Res-β-glc); format: biochemical; conditions: red substrate enzyme activity assay
Protocol: as §1, with “nm. […]” for “nm.”
The compounds in DMSO solution 0.5 μL/well was transferred to a black 96-well plate (the final titration was 24 nM to 50 μM, 12 concentrations). […] The red substrate reaction was measured in the Biotek Synergy H1 multi-mode plate reader with Ex=573 nm and Em=610 nm at 37° C. in every 20 seconds for 30 min. […] The fluorescence was then measured in the plate reader with Ex=365 nm and Em=440 nm.

[3] = molecular target: T2, recombinant wild type GCase; test: Covalent binding assay: activity of GCase activated by probe 4; format: biochemical; conditions: for enzyme activity comparing to the wt. GCase: covalent activation
Protocol: To the recombinant wild type enzyme (22 μM, 95 μL, 1 equiv) in 0.1 M phosphate buffer (pH 7.2) was added 2,5-dioxopyrrolidin-1-yl 3-(2-(2-(4-(4-(2,4-dimethylpyrrolo[1,2-a]pyrimidine-8-carboxamido)phenyl)-1H-1,2,3-triazol-1-yl)ethoxy)ethoxy)propanoate (4) in DMSO (0.89 mM, 5 μL, 2 equiv) in one portion, and was vortexed for 5 sec immediately. At indicated time points, the reaction solution (2 μL) was sampled and diluted (1:3125 dilution) into the assay buffer (50 mM citric acid, 176 mM K2HPO4, and 0.01% Tween-20 at pH 5.9). After 2 h the reaction solution was dialyzed three times with 0.1 M phosphate buffer (pH 7.2). The enzyme was adjusted to the same concentration and sampled for activity. The dilution solutions were assayed with three substrates, resorufin substrate, 4-MU substrate, and natural substrate using the method in Example 5 and Example 6 without adding compounds.
The probe 4 was subjected to the covalent binding assay against GCase. The reaction conditions, including the buffer pH value, the concentration of the protein and probe, and the reaction temperature were carefully adjusted to achieve the maximum activation. With the optimized reaction condition, the enzyme activity was activated in a time-dependent manner (FIG. 5). The enzyme could be activated by probe 4 with around 22 and 28 folds activity comparing to the wt. GCase in the 4MU-Glc substrate (FIG. 5A) and red substrate (FIG. 5B) enzyme activity assay respectively.

[4] = Enzyme stability assay in pH 4.7 buffer; format: physicochemical; conditions: citrate/phosphate buffer pH 4.7, day 4
Excerpt: To test whether probe 4 changed the enzyme stability of GCase, we used two environments for GCase activity stability assay (Tekoah, Tzaban et al. 2013). The first one was citrate/phosphorylate buffer, which was at pH 4.7. In this condition, the wt. GCase only had about 15% activity left on day 4 (FIGS. 6A and 6B), which is similar to the previous research (Tekoah, Tzaban et al. 2013). An interesting finding was that even on day 10, activated GCase still had more than 20% activity left. […] One possible reason for the higher enzyme activity in low pH buffer was that activated GCase was stabilized by the covalent compound, and was more difficult to unfold.

U937 macrophage cells = test: U937 macrophage uptake assay; format: cell-based, human; conditions: PMA-induced U937 cells, 4MU-β-glc substrate
Protocol: Human monocyte cell line U937 was optimally differentiated into macrophages by the addition of 75 ng/ml PMA (Brumshtein, Salinas et al. 2010) to the monocyte culture for 3 days (in 75 cm^2 flasks). Macrophages were enriched by adhesion to the culture plate and identified by morphology and receptor staining.
The assay was carried out according to the reported method (Tekoah, Tzaban et al. 2013) with slight modification. The enzyme was treated with compound 4 or DMSO at pH 7.2 for 60 min as described above, then dialyzed with PBS. U937 cells, after differentiation (˜1.6*10^6 cells), were incubated with 60 μg/ml of the activated enzymes and wt. enzyme in F12K medium for 10 min at 5% CO2, 37° C. incubator. The cells were then washed twice with ice cold PBS enriched with Mannan (1 mg/ml). To further ensure release of any proteins bound non-specifically to the membrane half of the cells were washed with ice cold glycine buffer: (0.8% NaCl, 0.038% KCl, 0.01% MgCl2, 0.01% CaCl2, 0.7% glycine [pH 3]) followed by two additional cold PBS washes. The other half of the wells were used as controls for measuring total enzymatic activity (bound and internalized enzyme). The cells were lysed by adding β-glucocerebrosidase activity buffer (60 mM phosphate-citrate buffer; 0.15% Triton X-100; 0.125% sodium taurocholate, pH 5.5), followed by pipetting and one freeze/thaw cycle. The obtained lysates were subjected to determination of enzymatic activity using the colorimetric method detailed above. The total enzymatic activity was normalized to total soluble proteins as measured by Bradford assay. The effective uptake was calculated as the percentage of activity within the cells out of the total enzymatic activity of the controls.

[5] = Table 2, values marked activator, read-out: Activity AC50 or IC50

activator (word in Activity cell) ([1]; Table 2)	AC50 [1, 5] [µM]	Molecule	also measured
–	–	Cc1cc(C)n2ccc(C(=O)Nc3ccc(-c4cn(CCOCCOCCC(=O)ON5C(=O)CCC5=O)nn4)cc3)c2n1 [No. 2, 2,5-Dioxopyrrolidin-1-yl 3-(2-(2-(4-(4-(2,4-dimethylpyrrolo[1,2-a]pyrimidine-8-carboxamido)phenyl)-1H-1,2,3-triazol-1-yl)ethoxy)ethoxy)propanoate]	maximum activity / activation activity ([1]; 4MU-Glc substrate enzyme activity assay): 20 folds; activation activity, red substrate [2]: 10 folds; enzyme activity comparing to the wt. GCase ([3]; 4MU-Glc substrate): around 22 folds; enzyme activity comparing to the wt. GCase ([3]; red substrate): ~28 folds; enzyme activity followed by dialysis ([3]; three substrate assays, in words): not decreased significantly
–	–	Cc1cc(C)n2ccc(C(=O)Nc3ccc(-c4cn(CCOCCOCCC(=O)NC5CCC5)nn4)cc3)c2n1 [compound 70]	AC50 ([1]; Table 1, titration 24 nM to 50 μM, substrate not given, read-out: Ac50): 3.55 µM
activator	1.26	Cc1cc(C)n2ccc(C(=O)Nc3ccc(-c4cn(CCOCCOCCC(=O)NCCOCCOCCOCCNC(=O)CCOCCOCCn5cc(-c6ccc(NC(=O)c7ccn8c(C)cc(C)nc78)cc6)nn5)nn4)cc3)c2n1 [compound 71]	–
activator	6.13	Cc1cc(C)n2ccc(C(=O)NCc3cccnc3Oc3ccccc3)c2n1 [compound 72]	–
activator	0.316	Cc1cc(C)n2ccc(C(=O)Nc3ccc(I)cc3)c2n1 [compound 73]	–
activator	0.71	COC(=O)CCCCCCCCC#Cc1ccc(NC(=O)c2ccn3c(C)cc(C)nc23)cc1 [compound 74]	–
activator	1.26	Cc1cc(C)n2ccc(C(=O)Nc3ccc(C#CCCCCCCC#Cc4ccc(N)cc4)cc3)c2n1 [compound 75]	–
activator	28.2	Cc1cc(C)n2ccc(C(=O)Nc3ccc(C#CCCCCCCC#Cc4ccc(NC(=O)c5ccn6c(C)cc(C)nc56)cc4)cc3)c2n1 [compound 76]	–
activator	0.71	COC(=O)CCCCCCCCC#Cc1ccc(NC(=O)c2ccn3c(C)cc(-c4cccnc4)nc23)cc1 [compound 78]	–
activator	3.54	Cc1cc(-c2cccnc2)nc2c(C(=O)Nc3ccc(C#CCCCCCCCCC(=O)O)cc3)ccn12 [compound 79]	–
activator	–	COC(=O)CCCC#Cc1cccc(NC(=O)c2ccn3c(C)cc(C)nc23)c1 [compound 80]	–
activator	1.78	COC(=O)CCCCCc1cccc(NC(=O)c2ccn3c(C)cc(C)nc23)c1 [compound 81]	–
activator	0.8	Cc1cc(C)n2ccc(C(=O)Nc3ccc(C#CCCCCCCCCC(=O)ON4C(=O)CCC4=O)cc3)c2n1 [compound 82]	–
activator	0.56	Cc1cc(-c2cccnc2)nc2c(C(=O)Nc3ccc(C#CCCCCCCCCC(=O)ON4C(=O)CCC4=O)cc3)ccn12 [compound 83]	–
–	–	wt. GCase: recombinant wt. enzyme velaglucerase alfa (Vpriv, Shire Human Genetic Therapies, Inc.) (protein, UniProt P04062 40-536, looked up, velaglucerase alfa) Lysosomal acid …: ARPCIPKSFGYSSVVCVCNATYCDSFDPPTFPALGTFSRYESTRSGRRMELSMGPIQANHTGTGLLLTLQPEQKFQKVKGFGGAMTDAAALNILALSPPAQNLLLKSYFSEEGIGYNIIRVPMASCDFSIRTYTYADTPDDFQLHNFSLPEEDTKLKIPLIHRALQLAQRPVSLLASPWTSPTWLKTNGAVNGKGSLKGQPGDIYHQTWARYFVKFLDAYAEHKLQFWAVTAENEPSAGLLSGYPFQCLGFTPEHQRDFIARDLGPTLANSTHHNVRLLMLDDQRLLLPHWAKVVLTDPEAAKYVHGIAVHWYLDFLAPAKATLGETHRLFPNTMLFASEACVGSKFWEQSVRLGSWDRGMQYSHSIITNLLYHVVGWTDWNLALNPEGGPNWVRNFVDSPIIVDITKDTFYKQPMFYHLGHFSKFIPEGSQRVGLVASQKNDLDAVALMHPDGSAVVVVLNRSSKDVPLTIKDPAVGFLETISPGYSIHTYLWRRQ	activity left [4]: about 15%; activity compared to endogenous GC (U937 macrophage cells): about 3 folds
